The values that follow come from BindingDB's records for patent WO2023019327 (Mindset Pharma, 2023).

A word on the EC50: it is the concentration giving half of the maximal effect.

Sequence of 5-hydroxytryptamine receptor 2A (P28223 whole entry): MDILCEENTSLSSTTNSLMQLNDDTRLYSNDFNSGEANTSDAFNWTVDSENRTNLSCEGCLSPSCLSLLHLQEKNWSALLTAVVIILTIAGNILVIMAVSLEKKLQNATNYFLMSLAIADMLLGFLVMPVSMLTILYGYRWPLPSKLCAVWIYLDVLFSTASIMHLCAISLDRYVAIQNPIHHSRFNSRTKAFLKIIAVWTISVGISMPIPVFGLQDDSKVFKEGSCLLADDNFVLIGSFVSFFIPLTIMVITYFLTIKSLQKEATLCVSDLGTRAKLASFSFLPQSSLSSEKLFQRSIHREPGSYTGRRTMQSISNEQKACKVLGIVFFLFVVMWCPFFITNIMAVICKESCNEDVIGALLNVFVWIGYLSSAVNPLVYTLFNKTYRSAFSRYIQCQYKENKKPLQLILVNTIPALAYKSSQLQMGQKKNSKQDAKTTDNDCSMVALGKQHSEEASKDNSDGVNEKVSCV

This assay concerns the target 5-hydroxytryptamine receptor 2A (Homo sapiens, UniProt P28223). Kind of assay: FLIPR Calcium 6 Assay. As to the method: The dye is diluted with assay buffer (20mM HEPES in 1x HBSS, PH7.4); Probenecid was added to the final concentration of 5 mM; […]. Vortexed vigorously for 1-2 minutes. Medium is removed from cell plate by flicking the cell plate on towel papers. […] The cell plate is placed on plate shaker, the plate was agitated at 600rpm for 2 minutes. The plate is incubated at 37°C for 2 hours followed by additional 15-minute incubation at 25°C. 3*compound in assay buffer is prepared: a. Reference compounds are diluted to required concentration with DMSO. The compounds were added to a 384-well compound plate; b. Serial dilutions are performed; c. […] Add […] assay buffer to the compound plate; f.
As to `CN(C)CCc1c[nH]c2ccccc12` [2-(1H-indol-3-yl)-N,N-dimethylethanamine], the EC50 was less than 10 µM.

For the compound `CCCCC/C=C\C/C=C\CCCCCCCC(=O)N(C)CCc1c[nH]c2ccccc12` [WO2023019367, Compound I-1], the EC50 is more than 30 µM. `CCCCC/C=C\C/C=C\CCCCCCCC(=O)N(C)CCc1c[nH]c2ccc(OC)cc12` [WO2023019367, Compound I-21]: the EC50 was more than 30 µM. `CCCCC/C=C\C/C=C\CCCCCCCC(=O)N1CCCC1Cc1c[nH]c2ccccc12` (centres undefined) [WO2023019367, Compound I-46]: the EC50 is more than 30 µM. As to `CCCCC/C=C\C/C=C\CCCCCCCC(=O)N1CCCC1Cc1c[nH]c2ccc(OC)cc12` (centres undefined) [WO2023019367, Compound I-55], the EC50 was more than 30 µM. Consider `CCCCC/C=C\C/C=C\CCCCCCCC(=O)N1CCC(c2c[nH]c3ccc(OC)cc23)C1` (centres undefined) [WO2023019367, Compound I-81], for which the EC50 is more than 30 µM.

As to `CCCCC/C=C\C/C=C\CCCCCCCC(=O)N1CCC(c2c[nH]c3ccccc23)C1` (centres undefined) [WO2023019367, Compound I-84], the EC50 is more than 30 µM.

On to `CCCCC/C=C\C/C=C\CCCCCCCC(=O)N1CCC(c2c[nH]c3ccccc23)CC1` [WO2023019367, Compound I-87], for which the EC50 is more than 30 µM. Consider `CCCCC/C=C\C/C=C\CCCCCCCC(=O)N1CCC(c2c[nH]c3ccc(OC)cc23)CC1` [WO2023019367, Compound I-88], for which the EC50 is more than 30 µM.
